Reference: PubChem BioAssay (NCI)
Values joined by “and” are separate entries in the source; they are usually repeats but may differ in a detail not shown here. Identical values can stand only once.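 Each compound was tested at five concentrations against cells in 96-well plates for 48 hours. Here, GI50 denotes the concentration required for 50% inhibition of growth. Definition used: TGI = concentration required for complete inhibition of growth.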

Tested on: P388 leukemia
Assay: NCI tumour cell line growth inhibition, 48 h

| SMILES | GI50 [µM] | TGI |
| --- | --- | --- |
| CCC/C=C/C=C/C(=O)OC1/C(=C/C(=O)OC)CC2CC(C(C)O)OC(=O)CC(O)CC3CC(OC(C)=O)C(C)(C)C(O)(CC4C/C(=C/C(=O)OC)CC(/C=C/C(C)(C)C1(O)O2)O4)O3 (stereo not drawn) | 9.73 | 10.9 µM and 11 µM |
| NC(CSC(c1ccccc1)(c1ccccc1)c1ccccc1)C(=O)O (stereo not drawn) |  | 38.8 µM |
